Results as given in patent US8921307B2, “Synthetic linear apelin mimetics for the treatment of heart failure” (priority 2012, dated 2014).
Like-named read-outs stand apart in the source and are kept apart here. Where a SMILES comes first, the peptide text is derived from it. [ ]: non-standard residue; d: D form. The star is where a group is joined. Phe(3,4-Cl2) = N[C@@H](Cc1ccc(Cl)c(Cl)c1)C(=O)O; 2Nal = N[C@@H](Cc1ccc2ccccc2c1)C(=O)O; dTic = O=C(O)[C@H]1Cc2ccccc2CN1; Cha = N[C@@H](CC1CCCCC1)C(=O)O; pGlu = O=C1CC[C@@H](C(=O)O)N1; dNle = CCCC[C@@H](N)C(=O)O; Nle = CCCC[C@H](N)C(=O)O; Bn = c1ccc(C*)cc1

Tests used:
hAPJ = target: T1, hAPJ (Homo sapiens, UniProt P35414); assay: hAPJ Calcium Flux Assay; assay type: cell-based
T1 sequence (P35414 1-380): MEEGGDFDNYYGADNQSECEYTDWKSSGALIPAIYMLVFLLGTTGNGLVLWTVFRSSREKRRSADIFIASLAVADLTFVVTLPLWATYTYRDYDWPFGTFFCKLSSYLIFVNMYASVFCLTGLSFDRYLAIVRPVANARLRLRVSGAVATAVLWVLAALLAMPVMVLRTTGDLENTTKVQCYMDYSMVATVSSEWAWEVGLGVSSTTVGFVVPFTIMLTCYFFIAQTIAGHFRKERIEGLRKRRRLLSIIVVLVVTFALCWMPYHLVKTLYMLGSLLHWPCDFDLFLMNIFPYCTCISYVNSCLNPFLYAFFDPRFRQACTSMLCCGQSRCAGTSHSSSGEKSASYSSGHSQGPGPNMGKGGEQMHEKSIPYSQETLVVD
Method: Chem-5 APJ stable cells (Millipore # HTS068C) were plated in 384-well format with 10,000 cells/well in 25 ul growth media, then grown 24 hours in a 37° C. tissue culture incubator. One hour before the assay, 25 ul/well FLIPR Calcium 4 dye (Molecular Devices R8142) with 2.5 mM probenecid was added, and cells were incubated one hour in a 37° C. tissue culture incubator. Peptides were solubilized in HBSS, HEPES & 0.1% BSA buffer, and serially-diluted 10-fold, from 50 uM to […], in triplicate. FLIPR Tetra was used to add peptide to the cells with dye (1:5, for final peptide concentrations ranging from 10 uM to […]). FLIPR dye inside the cells emitted fluorescence after binding to calcium, while fluorescence from outside the cells was masked. Fluorescence was measured using 470-495 excitation and 515-575 emission wavelengths on the FLIPR Tetra. Readings were done for 3 minutes total, beginning 10 seconds before the peptide addition. Maximum-minimum values were calculated and plotted for each peptide concentration, and GraphPad prism software was used to calculate EC50 values at the curve inflection points, for calcium flux stimulation by peptides.

[1] = Surrogate Activity-Based Plasma Stability Assay; assay type: in vitro ADME; conditions: rat
Method: Stability half-life was then calculated by the formula, t½=0.693÷k Surrogate Activity-Based Plasma Stability Assay: […]
2) Calculate slope of value above and […]

[2] = Chem-5 APJ stable cells, FLIPR calcium flux stimulation, read-out: hAPJ Ca^2+ Flux EC50
[3] = Surrogate activity-based Plasma stability t½

Compound	EC50 (hAPJ; [2]) [nM]	half-life [1, 3] [h]	EC50 (hAPJ) [nM]	half-life ([1]; read-out: Surrogate activity-based Plasma stability t½) [h]
CCCC[C@@H](NC(=O)[C@@H]1CCCN1C(=O)CNC(=O)[C@H](CCCCN)NC(=O)[C@H](Cc1c[nH]cn1)NC(=O)[C@@H](C)NC(=O)[C@H](CC(C)C)NC(=O)[C@H](CCCNC(=N)N)NC(=O)[C@@H]1CCCN1C(=O)[C@H](CCCNC(=N)N)NC(=O)[C@@H]1CCC(=O)N1)C(=O)N[C@H](CCCNC(=N)N)C(=O)N[C@H](Cc1ccccc1)C(=O)O [Example 20, pE-R-P-R-L-a-H-K-G-P-nle-r-f-OH] ([pGlu]RPRL[dA]HKGP[dNle][dR][dF]-OH)	922	> 16.7	–	–
CCCC[C@@H](NC(=O)[C@@H]1CCCN1C(=O)CNC(=O)[C@H](CCCCN)NC(=O)[C@H](Cc1c[nH]cn1)NC(=O)[C@@H](C)NC(=O)[C@H](CC(C)C)NC(=O)[C@H](CCCNC(=N)N)NC(=O)[C@@H]1CCCN1C(=O)[C@H](CCCNC(=N)N)NC(=O)[C@@H]1CCC(=O)N1)C(=O)N[C@H](C)C(=O)N[C@H](CC(=O)O)C(=O)O [Example 22, pE-R-P-R-L-a-H-K-G-P-nle-a-d-OH] ([pGlu]RPRL[dA]HKGP[dNle][dA][dD]-OH)	86.8	> 16.7	–	–
CCCC[C@@H](NC(=O)[C@@H]1CCCN1C(=O)CNC(=O)[C@H](CCCCN)NC(=O)[C@H](Cc1c[nH]cn1)NC(=O)[C@@H](C)NC(=O)[C@H](Cc1ccc(OCc2ccccc2)cc1)NC(=O)[C@H](CCCNC(=N)N)NC(=O)[C@@H]1CCCN1C(=O)[C@H](CCCNC(=N)N)NC(=O)[C@@H]1CCC(=O)N1)C(=O)N[C@H](C)C(=O)N[C@H](Cc1ccccc1)C(=O)O [Example 27, pE-R-P-R-Y(Bzl)-a-H-K-G-P-nle-a-f-OH] ([pGlu]RPRY(Bn)[dA]HKGP[dNle][dA][dF]-OH)	–	–	121	5.81
CCCC[C@@H](NC(=O)[C@@H]1CCCN1C(=O)CNC(=O)[C@H](CCCCN)NC(=O)[C@H](Cc1c[nH]cn1)NC(=O)[C@@H](C)NC(=O)[C@H](Cc1ccc(O)cc1)NC(=O)[C@H](CCCNC(=N)N)NC(=O)[C@@H]1CCCN1C(=O)[C@H](CCCNC(=N)N)NC(=O)[C@@H]1CCC(=O)N1)C(=O)N[C@H](C)C(=O)N[C@H](Cc1ccccc1)C(=O)O [Example 28, pE-R-P-R-Y-a-H-K-G-P-nle-a-f-OH] ([pGlu]RPRY[dA]HKGP[dNle][dA][dF]-OH)	114	> 16.7	–	–
CCCC[C@H](NC(=O)[C@@H]1CCCN1C(=O)CNC(=O)[C@@H](CCCCN)NC(=O)[C@H](Cc1c[nH]cn1)NC(=O)[C@@H](C)NC(=O)[C@H](CC(C)C)NC(=O)[C@H](CCCNC(=N)N)NC(=O)[C@@H]1CCCN1C(=O)[C@H](CCCNC(=N)N)NC(=O)[C@@H]1CCC(=O)N1)C(=O)N[C@H](C)C(=O)N[C@H](Cc1ccccc1)C(=O)O [Example 31, pE-R-P-R-L-a-H-k-G-P-Nle-a-f-OH]	99	5.78	–	–
CCCC[C@@H](NC(=O)[C@@H]1CCCN1C(=O)CNC(=O)[C@H](CCCCN)NC(=O)[C@H](Cc1c[nH]cn1)NC(=O)[C@@H](C)NC(=O)[C@H](CC(C)C)NC(=O)[C@H](CCCNC(=N)N)NC(=O)[C@@H]1CCCN1C(=O)[C@H](CCCNC(=N)N)NC(=O)[C@@H]1CCC(=O)N1)C(=O)N[C@H](C)C(=O)NCCc1ccccc1 [Example 36, pE-R-P-R-L-a-H-K-G-P-nle-a-NH(Phenethyl)]	16.2	2.02	–	–

Further molecules by falling EC50 (hAPJ; [2]), results first:

EC50 (hAPJ; [2]) [nM]	half-life [1, 3] [h]	Compound	EC50 (hAPJ) [nM]	half-life ([1]; read-out: Surrogate activity-based Plasma stability t½) [h]
69.2	4.03	CCCC[C@@H](NC(=O)[C@@H]1CCCN1C(=O)CNC(=O)[C@H](CCCCN)NC(=O)[C@H](Cc1c[nH]cn1)NC(=O)[C@@H](C)NC(=O)[C@H](Cc1ccc2ccccc2c1)NC(=O)[C@H](CCCNC(=N)N)NC(=O)[C@@H]1CCCN1C(=O)[C@H](CCCNC(=N)N)NC(=O)[C@@H]1CCC(=O)N1)C(=O)N[C@H](C)C(=O)N[C@H](Cc1ccccc1)C(=O)O [Example 25, pE-R-P-R-(2-Nal)-a-H-K-G-P-nle-a-f-OH] ([pGlu]RPR[2Nal][dA]HKGP[dNle][dA][dF]-OH)	–	–
34.5	0.387	CCCC[C@H](NC(=O)[C@@H]1CCCN1C(=O)CNC(=O)[C@H](CCCCN)NC(=O)[C@H](Cc1c[nH]cn1)NC(=O)[C@@H](C)NC(=O)[C@H](CC(C)C)NC(=O)[C@H](CCCNC(=N)N)NC(=O)[C@@H]1CCCN1C(=O)[C@H](CCCNC(=N)N)NC(=O)[C@@H]1CCC(=O)N1)C(=O)N1CCC[C@H]1C(=O)N[C@H](Cc1ccccc1)C(=O)O [Example 34, pE-R-P-R-L-a-H-K-G-P-Nle-P-f-OH] ([pGlu]RPRL[dA]HKGP[Nle]P[dF]-OH)	–	–
14.8	> 16.7	CCCC[C@@H](NC(=O)[C@@H]1CCCN1C(=O)CNC(=O)[C@H](CCCCN)NC(=O)[C@H](Cc1c[nH]cn1)NC(=O)[C@@H](C)NC(=O)[C@H](CC(C)C)NC(=O)[C@H](CCCNC(=N)N)NC(=O)[C@@H]1CCCN1C(=O)[C@H](CCCNC(=N)N)NC(=O)[C@@H]1CCC(=O)N1)C(=O)N[C@H](C)C(=O)N[C@H](Cc1ccccc1)C(N)=O [Example 33, pE-R-P-R-L-a-H-K-G-P-nle-a-f-NH2]	–	–
13.8	0.958	CCCC[C@@H](NC(=O)[C@@H]1CCCN1C(=O)CNC(=O)[C@H](CCCCN)NC(=O)[C@H](Cc1c[nH]cn1)NC(=O)[C@@H](C)NC(=O)[C@H](Cc1ccc(Cl)c(Cl)c1)NC(=O)[C@H](CCCNC(=N)N)NC(=O)[C@@H]1CCCN1C(=O)[C@H](CCCNC(=N)N)NC(=O)[C@@H]1CCC(=O)N1)C(=O)N[C@H](C)C(=O)N[C@H](Cc1ccccc1)C(=O)O [Example 24, pE-R-P-R-(3,4-Cl2-F)-a-H-K-G-P-nle-a-f-OH] ([pGlu]RPR[Phe(3,4-Cl2)][dA]HKGP[dNle][dA][dF]-OH)	–	–
10.7	> 16.7	CCCC[C@H](NC(=O)[C@@H]1CCCN1C(=O)CNC(=O)[C@H](CCCCN)NC(=O)[C@H](Cc1c[nH]cn1)NC(=O)[C@@H](C)NC(=O)[C@H](CC(C)C)NC(=O)[C@H](CCCNC(=N)N)NC(=O)[C@@H]1CCCN1C(=O)[C@H](CCCNC(=N)N)NC(=O)[C@@H]1CCC(=O)N1)C(=O)N[C@H](Cc1ccccc1)C(=O)O [Example 35, pE-R-P-R-L-a-H-K-G-P-Nle-f-OH]	–	–
2.8	2.08	CCCC[C@@H](NC(=O)[C@@H]1CCCN1C(=O)CNC(=O)[C@H](CCCCN)NC(=O)[C@H](Cc1c[nH]cn1)NC(=O)[C@@H](C)NC(=O)[C@H](CC1CCCCC1)NC(=O)[C@H](CCCNC(=N)N)NC(=O)[C@@H]1CCCN1C(=O)[C@H](CCCNC(=N)N)NC(=O)[C@@H]1CCC(=O)N1)C(=O)N[C@H](C)C(=O)N[C@H](Cc1ccccc1)C(=O)O [Example 23, pE-R-P-R-Cha-a-H-K-G-P-nle-a-f-OH] ([pGlu]RPR[Cha][dA]HKGP[dNle][dA][dF]-OH)	–	–
1.7	16.4	CCCC[C@@H](NC(=O)[C@@H]1CCCN1C(=O)CNC(=O)[C@H](CCCCN)NC(=O)[C@H](Cc1c[nH]cn1)NC(=O)[C@@H](C)NC(=O)[C@H](CC(C)C)NC(=O)[C@H](CCCNC(=N)N)NC(=O)[C@@H]1CCCN1C(=O)[C@H](CCCNC(=N)N)NC(=O)[C@@H]1CCC(=O)N1)C(=O)N[C@H](C)C(=O)N1Cc2ccccc2C[C@@H]1C(=O)O [Example 26, pE-R-P-R-L-a-H-K-G-P-nle-a-tic-OH] ([pGlu]RPRL[dA]HKGP[dNle][dA][dTic]-OH)	–	–
0.9	> 16.7	CCCC[C@@H](NC(=O)[C@@H]1CCCN1C(=O)CNC(=O)[C@H](CCCCN)NC(=O)[C@H](Cc1c[nH]cn1)NC(=O)[C@@H](C)NC(=O)[C@H](CC(C)C)NC(=O)[C@H](CCCNC(=N)N)NC(=O)[C@@H]1CCCN1C(=O)[C@H](CCCNC(=N)N)NC(=O)[C@@H]1CCC(=O)N1)C(=O)N[C@H](C)C(=O)N[C@H](Cc1ccc(O)cc1)C(=O)O [Example 21, pE-R-P-R-L-a-H-K-G-P-nle-a-y-OH] ([pGlu]RPRL[dA]HKGP[dNle][dA][dY]-OH)	–	–
